Biological target: T1, recombinant autotaxin (Homo sapiens, UniProt Q13822)
T1 construct: made in house; host or cells: Hi5 insect cells (baculovirus)
Test: Autotaxin test (enzyme test), Amplex Red fluorescence with LPC substrate
Assay type: biochemical
Conditions: autotaxin inhibition (enzyme test); for remaining activity at 10 µM: 10 μM compound, read-out: % Control at 10 μM
Outline: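 Activity was inferred from H2O2 made from released choline, detected as Amplex Red/peroxidase fluorescence (485 nm excitation, 612 nm emission, kinetic read). Beforehand, Hi5-expressed autotaxin sat with compound 30 min at 22° C, then hydrolysed 75 μM final LPC for 90 min at 37° C, pH 8 Tris buffer.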

## O=C1Nc2ccc(-c3ccc(Cl)cc3F)cc2C(=O)N2CCN(C(=O)CC3CC3)CC12 (stereo not drawn) [Compound A28, 7-(4-Chloro-2-fluorophenyl)-2-(2-cyclopropylacetyl)-1,3,4,11a-tetrahydro-2H,10H-2,4a,10-triaza-dibenzo[a,d]cycloheptene-5,11-dione]
  remaining activity at 10 µM: 4%
  IC50: > 1000 nM

## CC(C)(C)CC(=O)N1CCN2C(=O)c3cc(-c4ccc(Cl)cc4F)ccc3NC(=O)[C@@H]2C1 [Compound A125, (S)-7-(4-Chloro-2-fluorophenyl)-2-(3,3-dimethyl-butyryl)-1,3,4,11a-tetrahydro-2H,10H-2,4a,10-triazadibenzo[a,d]cycloheptene-5,11-dione]
  remaining activity at 10 µM: 25%
  IC50: > 1000 nM

## CC(C)(C(=O)N1CCN2C(=O)c3cc(-c4ccc(Cl)cc4)ccc3NC(=O)C2C1)c1ccccc1 (stereo not drawn) [Compound A46, 7-(4-Chlorophenyl)-2-(2-methyl-2-phenylpropionyl)-1,3,4,11a-tetrahydro-2H,10H-2,4a,10-triaza-dibenzo[a,d]cycloheptene-5,11-dione]
  IC50: > 1000 nM

## O=C1Nc2ccc(-c3ccc(Cl)cc3)cc2C(=O)N2CCN(C(=O)c3ccccn3)CC12 (stereo not drawn) [Compound A51, 7-(4-Chlorophenyl)-2-(pyridine-2-carbonyl)-1,3,4,11a-tetrahydro-2H,10H-2,4a,10-triaza-dibenzo[a,d]cycloheptene-5,11-dione]
  remaining activity at 10 µM: 37%
  IC50: > 1000 nM

## CC(C)(C)CC(=O)N1CCN2C(=O)c3cc(-c4ccc(Cl)cc4F)ccc3N(CC(N)=O)C(=O)C2C1 (stereo not drawn) [Compound A145]
  remaining activity at 10 µM: 2%
  IC50: 100 to 1000 nM

## CC(C)(C)CC(=O)N1CCN2C(=O)c3cc(-c4cccc(F)c4F)ccc3NC(=O)C2C1 (stereo not drawn) [Compound A88, 7-(2,3-Difluorophenyl)-2-(3,3-dimethylbutyryl)-1,3,4,11a-tetrahydro-2H,10H-2,4a,10-triaza-dibenzo[a,d]cycloheptene-5,11-dione]
  remaining activity at 10 µM: -6%
  IC50: > 1000 nM

## CC(C)[C@H](N)C(=O)N1CCN2C(=O)c3cc(-c4ccc(Cl)cc4F)ccc3NC(=O)C2C1 (stereo partly drawn) [Compound A59, 2-((S)-2-Amino-3-methylbutyryl)-7-(4-chloro-2-fluorophenyl)-1,3,4,11a-tetrahydro-2H,10H-2,4a,10-triazadibenzo[a,d]cycloheptene-5,11-dione]
  remaining activity at 10 µM: -9%
  IC50: > 1000 nM

## O=C1Nc2ccc(-c3ccc(Cl)cc3)cc2C(=O)N2CCN(C(=O)C3CSC(c4ccncc4)N3)CC12 (stereo not drawn) [Compound A71, 7-(4-Chlorophenyl)-2-(2-pyridin-4-ylthiazolidine-4-carbonyl)-1,3,4,11a-tetrahydro-2H,10H-2,4a,10-triazadibenzo[a,d]cycloheptene-5,11-dione]
  remaining activity at 10 µM: 7%
  IC50: > 1000 nM

## O=C1Nc2ccc(-c3ccc(Cl)cc3)cc2C(=O)N2CCN(C(=O)C3(c4ccc(Cl)cc4)CC3)CC12 (stereo not drawn) [Compound A47, 7-(4-Chlorophenyl)-2-[1-(4-chlorophenyl)-cyclopropanecarbonyl]-1,3,4,11a-tetrahydro-2H,10H-2,4a,10-triazadibenzo[a,d]cycloheptene-5,11-dione]
  IC50: > 1000 nM

## O=C1Nc2ccc(-c3ccc(Cl)cc3)cc2C(=O)N2CCN(C(=O)C3CCCN3C(=O)Nc3ccc(Cl)cc3)CC12 (stereo not drawn) [Compound A111, N-(4-Chlorophenyl)-2-[7-(4-chlorophenyl)-5,11-dioxo-3,4,5,10,11,11a-hexahydro-1H-2,4a,10-triaza-dibenzo[a,d]cycloheptene-2-carbonyl]pyrrolidine-1-carboxamide]
  remaining activity at 10 µM: 3%
  IC50: > 1000 nM

## CC(C)(C)CC(=O)N1CCN2C(=O)c3cc(-c4cc(F)ccc4F)ccc3NC(=O)C2C1 (stereo not drawn) [Compound A89, 7-(2,5-Difluorophenyl)-2-(3,3-dimethylbutyryl)-1,3,4,11a-tetrahydro-2H,10H-2,4a,10-triaza-dibenzo[a,d]cycloheptene-5,11-dione]
  remaining activity at 10 µM: 4%
  IC50: > 1000 nM

## CC1(C)SCN[C@@H]1C(=O)N1CCN2C(=O)c3cc(-c4ccc(Cl)cc4F)ccc3NC(=O)C2C1 (stereo partly drawn) [Compound A68, 7-(4-Chloro-2-fluorophenyl)-2-((R)-5,5-dimethyl-thiazolidine-4-carbonyl)-1,3,4,11a-tetrahydro-2H,10H-2,4a,10-triazadibenzo[a,d]cycloheptene-5,11-dione]
  remaining activity at 10 µM: -18%
  IC50: 100 to 1000 nM

## O=C1Nc2ccc(-c3ccc(Cl)cc3)cc2C(=O)N2CCN(C(=O)COc3ccccc3)C[C@H]12 [Compound B21]
  remaining activity at 10 µM: 57%

## CC(C)CS(=O)(=O)N1CCN2C(=O)c3cc(-c4ccc(Cl)cc4F)ccc3NC(=O)[C@H]2C1 [Compound A173]
  remaining activity at 10 µM: 1%
  IC50: 100 to 1000 nM

## CC(C)(C)CC(=O)N1CCN2C(=O)c3cc(-c4cc(F)c(F)cc4F)ccc3NC(=O)C2C1 (stereo not drawn) [Compound A92, 2-(3,3-Dimethylbutyryl)-7-(2,4,5-trifluorophenyl)-1,3,4,11a-tetrahydro-2H,10H-2,4a,10-triaza-dibenzo[a,d]cycloheptene-5,11-dione]
  remaining activity at 10 µM: 1%
  IC50: > 1000 nM

## CC(C)(C)[C@H](O)C(=O)N1CCN2C(=O)c3cc(-c4ccc(Cl)cc4)ccc3NC(=O)C2C1 (stereo partly drawn) [Compound A34, 7-(4-Chlorophenyl)-2-((S)-2-hydroxy-3,3-dimethylbutyryl)-1,3,4,11a-tetrahydro-2H,10H-2,4a,10-triazadibenzo[a,d]cycloheptene-5,11-dione]
  IC50: 100 to 1000 nM

## CC(C)(CC(=O)O)CC(=O)N1CCN2C(=O)c3cc(-c4ccc(Cl)cc4)ccc3NC(=O)[C@H]2C1 [Compound B8]
  remaining activity at 10 µM: 70%

## O=C1Nc2ccc(-c3ccccc3F)cc2C(=O)N2CCN(C(=O)[C@@H]3CSCN3)C[C@@H]12 [Compound A16, (S)-7-(2-Fluorophenyl)-2-((R)-thiazolidine-4-carbonyl)-1,3,4,11a-tetrahydro-2H,10H-2,4a,10-triazadibenzo[a,d]cycloheptene-5,11-dione]
  remaining activity at 10 µM: 18%
  IC50: > 1000 nM

## CC(C)(C)[C@H](O)C(=O)N1CCN2C(=O)c3cc(-c4ccc(Cl)cc4)ccc3NC(=O)[C@@H]2C1 [Compound A54, (S)-7-(4-Chlorophenyl)-2-((S)-2-hydroxy-3,3-di-methyl-1-oxobutyl)-1,3,4,11a-tetrahydro-2H,10H-2,4a,10-triazadibenzo[a,d]cycloheptene-5,11-dione]
  remaining activity at 10 µM: 84%

## CC(C)(C)CC(=O)N1CCN2C(=O)c3cc(-c4ccccc4F)ccc3NC(=O)[C@@H]2C1 [Compound A17, (S)-2-(3,3-Dimethylbutyryl)-7-(2-fluorophenyl)-1,3,4,11a-tetrahydro-2H,10H-2,4a,10-triaza-dibenzo[a,d]cycloheptene-5,11-dione]
  IC50: 100 to 1000 nM

## CC(C)(C)CC(=O)N1CCN2C(=O)c3cc(-c4ccc(Cl)cc4F)ccc3N(CCC3CCNCC3)C(=O)[C@H]2C1 [Compound A157]
  remaining activity at 10 µM: 2%
  IC50: 100 to 1000 nM

## COCCN1C(=O)C2CN(C(=O)CC(C)(C)C)CCN2C(=O)c2cc(-c3ccc(Cl)cc3)ccc21 (stereo not drawn) [Compound A135, 7-(4-Chlorophenyl)-2-(3,3-dimethylbutyryl)-10-(2-methoxyethyl)-1,3,4,11a-tetrahydro-2H,10H-2,4a,10-triazadibenzo[a,d]cycloheptene-5,11-dione]
  remaining activity at 10 µM: -9%
  IC50: > 1000 nM

## O=C1Nc2ccc(-c3ccc(Cl)cc3)cc2C(=O)N2CCN(C(=O)C(O)c3cccc(Cl)c3)CC12 (stereo not drawn) [Compound A41, 7-(4-Chlorophenyl)-2-[2-(3-chlorophenyl)-2-hydroxyacetyl]-1,3,4,11a-tetrahydro-2H,10H-2,4a,10-triazadibenzo[a,d]cycloheptene-5,11-dione]
  remaining activity at 10 µM: 68%
  IC50: > 1000 nM

## CC(C)(C)CC(=O)N1CCN2C(=O)c3cc(-c4ccc(C(F)(F)F)cc4)ccc3NC(=O)C2C1 (stereo not drawn) [Compound A18, 2-(3,3-Dimethylbutyryl)-7-(4-trifluoromethylphenyl)-1,3,4,11a-tetrahydro-2H,10H-2,4a,10-triaza-dibenzo[a,d]cycloheptene-5,11-dione]
  remaining activity at 10 µM: 70%
  IC50: > 1000 nM

## C#Cc1ccc(-c2ccc3c(c2)C(=O)N2CCN(C(=O)CC(C)(C)C)CC2C(=O)N3)cc1 (stereo not drawn) [Compound A140, 2-(3,3-Dimethylbutyryl)-7-(4-ethynylphenyl)-1,3,4,11a-tetrahydro-2H,10H-2,4a,10-triaza-dibenzo[a,d]cycloheptene-5,11-dione]
  remaining activity at 10 µM: -10%
  IC50: > 1000 nM

## CN1CCN(C(=O)CN2C(=O)[C@H]3CN(C(=O)CC(C)(C)C)CCN3C(=O)c3cc(-c4ccc(Cl)cc4F)ccc32)CC1 [Compound A149]
  remaining activity at 10 µM: 15%
  IC50: > 1000 nM

## Cc1ccc(-c2ccc3c(c2)C(=O)N2CCN(C(=O)CC(C)(C)C)CC2C(=O)N3)cc1 (stereo not drawn) [Compound A105, 2-(3,3-Dimethylbutyryl)-7-p-tolyl-1,3,4,11a-tetrahydro-2H,10H-2,4a,10-triaza-dibenzo[a,d]cycloheptene-5,11-dione]
  remaining activity at 10 µM: 22%
  IC50: > 1000 nM

## O=C1Nc2ccc(-c3ccc(Cl)cc3)cc2C(=O)N2CCN(C(=O)OCc3ccccc3)CC12 (stereo not drawn) [Compound 40, Benzyl 7-(4-chlorophenyl)-5,11-dioxo-3,4,5,10,11,11a-hexahydro-1H-2,4a,10-triazadibenzo[a,d]cycloheptene-2-carboxylate]
  remaining activity at 10 µM: 22%
  IC50: > 1000 nM

## O=C1Nc2ccc(-c3ccc(Cl)cc3)cc2C(=O)N2CCN(C(=O)c3csc(-c4cccnc4)n3)CC12 (stereo not drawn) [Compound A76, 7-(4-Chlorophenyl)-2-(2-pyridin-3-ylthiazole-4-carbonyl)-1,3,4,11a-tetrahydro-2H,10H-2,4a,10-triazadibenzo[a,d]cycloheptene-5,11-dione]
  remaining activity at 10 µM: 41%
  IC50: > 1000 nM

From patent US20120115852A1, “HETEROCYCLIC COMPOUNDS AS AUTOTAXIN INHIBITORS” (Merck Patent Gesellschaft Mit Beschrankter Haftung, priority 2009, published 2012)
